Tests used:
Type in all cases: functional, cell-based
[1] = target: T1, Solute carrier family 22 member 3 (Homo sapiens, UniProt O75751); assay: (§1) TP_TRANSPORTER: uptake in OCT3-expressing HEK293 cells
T1 sequence (O75751 whole entry): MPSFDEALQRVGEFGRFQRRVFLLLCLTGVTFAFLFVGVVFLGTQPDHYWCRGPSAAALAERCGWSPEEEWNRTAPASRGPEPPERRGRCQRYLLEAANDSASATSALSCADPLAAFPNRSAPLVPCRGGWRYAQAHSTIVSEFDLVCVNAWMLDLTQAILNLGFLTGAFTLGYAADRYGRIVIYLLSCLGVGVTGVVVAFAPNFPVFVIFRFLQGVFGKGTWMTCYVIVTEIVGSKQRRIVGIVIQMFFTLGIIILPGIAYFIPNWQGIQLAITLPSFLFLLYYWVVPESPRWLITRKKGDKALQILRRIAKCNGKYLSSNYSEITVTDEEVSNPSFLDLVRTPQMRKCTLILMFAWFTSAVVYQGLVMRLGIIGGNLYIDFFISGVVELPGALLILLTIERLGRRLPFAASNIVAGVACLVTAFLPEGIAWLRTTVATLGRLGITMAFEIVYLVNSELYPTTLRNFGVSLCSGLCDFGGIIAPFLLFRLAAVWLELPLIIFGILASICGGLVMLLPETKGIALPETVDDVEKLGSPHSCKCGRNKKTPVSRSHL

[2] = target: T1, Solute carrier family 22 member 3; assay: TP_TRANSPORTER: inhibition of MPP+ uptake in OCT3-expressing HEK293 cells
[3] = substrate: NC[C@H](O)c1ccc(O)c(O)c1; assay: as §1

C[n+]1ccc(-c2ccccc2)cc1
Activity [1]: substrate [+]

Nc1ncnc2c1ncn2CCOCP(=O)(O)O [ADEFOVIR]
Activity [1]: substrate [+]

COc1cc2c(c(OC)c1OC)-c1ccc(OC)c(=O)cc1[C@@H](NC(C)=O)CC2 [COLCHICINE]
Ki [2]: 120 nM

CC(C)N1/C(=C\c2cc[n+](C(C)C)c3ccccc23)C=Cc2ccccc21 [DISPROCYNIUM24]
Ki [2]: 15 nM

NCCc1c[nH]c2ccc(O)cc12 [SEROTONIN]
Activity [1]: substrate [+]

NCCc1ccc(O)cc1 [TYRAMINE]
Activity [1]: substrate [+]

B1: Solute carrier family 22 member 3 (Homo sapiens) (protein)
chain: MPSFDEALQRVGEFGRFQRRVFLLLCLTGVTFAFLFVGVVFLGTQPDHYWCRGPSAAALAERCGWSPEEEWNRTAPASRGPEPPERRGRCQRYLLEAANDSASATSALSCADPLAAFPNRSAPLVPCRGGWRYAQAHSTIVSEFDLVCVNAWMLDLTQAILNLGFLTGAFTLGYAADRYGRIVIYLLSCLGVGVTGVVVAFAPNFPVFVIFRFLQGVFGKGTWMTCYVIVTEIVGSKQRRIVGIVIQMFFTLGIIILPGIAYFIPNWQGIQLAITLPSFLFLLYYWVVPESPRWLITRKKGDKALQILRRIAKCNGKYLSSNYSEITVTDEEVSNPSFLDLVRTPQMRKCTLILMFAWFTSAVVYQGLVMRLGIIGGNLYIDFFISGVVELPGALLILLTIERLGRRLPFAASNIVAGVACLVTAFLPEGIAWLRTTVATLGRLGITMAFEIVYLVNSELYPTTLRNFGVSLCSGLCDFGGIIAPFLLFRLAAVWLELPLIIFGILASICGGLVMLLPETKGIALPETVDDVEKLGSPHSCKCGRNKKTPVSRSHL
Km [3]: 510 µM
